Data on eleven compounds can be found in patent US9315458B2, “Nitrogen-containing heterocyclic compound” (Takeda Pharmaceutical Company Limited, priority 2014, dated 2016).

pEC50: −log10 of the molar value.

The test deals with T1, human M1 receptor (hCHRM1) (Homo sapiens, UniProt P11229).
T1 construct: expressed in transfected cells
T1 sequence (P11229 1-460): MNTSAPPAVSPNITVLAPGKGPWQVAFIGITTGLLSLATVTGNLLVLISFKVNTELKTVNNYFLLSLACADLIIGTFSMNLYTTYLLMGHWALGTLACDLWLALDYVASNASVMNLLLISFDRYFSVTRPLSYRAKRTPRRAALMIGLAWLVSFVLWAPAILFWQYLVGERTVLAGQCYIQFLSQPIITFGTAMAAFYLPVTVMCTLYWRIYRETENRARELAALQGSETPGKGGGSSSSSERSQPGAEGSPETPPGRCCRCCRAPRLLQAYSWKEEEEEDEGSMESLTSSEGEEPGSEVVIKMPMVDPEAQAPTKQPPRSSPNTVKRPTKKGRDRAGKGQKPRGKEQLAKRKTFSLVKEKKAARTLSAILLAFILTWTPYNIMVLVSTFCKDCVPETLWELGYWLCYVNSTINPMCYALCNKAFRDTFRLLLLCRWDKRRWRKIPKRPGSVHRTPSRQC
As to the kind of experiment: Measurement of M1 receptor positive allosteric modulator (M1PAM) activity, calcium fluorescence (FLIPRtetra) with acetylcholine at EC20. The class given is cell-based. Conditions: for activity (%) at 10 μM: 10 μM test compound, 100% = acetylcholine 1 μM, 0% = DMSO, acetylcholine at EC20; for pEC50: inflection point of concentration-dependent curve, CHO-K1 cells expressing hCHRM1, acetylcholine at EC20 (final 0.6-0.8 nM), read-out: IP value. As to the method:
The activity of a test compound in the presence of acetylcholine at EC20 concentration (final concentration 0.6-0.8 nM), which affords an action corresponding to about 20% of the maximum activity, was measured as PAM activity. The method is as follows. CHO-K1 cells stably expressing a human M1 receptor (hCHRM1) were plated on a 384-well black clear bottom plate (BD Falcon) at 5,000 cells/well, and cultured in an incubator at 37° C., 5% CO2 for 1 day. The medium in the cell plate was removed, and assay buffer A (Recording medium (DOJINDO LABORATORIES), 0.1% BSA (Wako Pure Chemical Industries, Ltd.), 2.5 μg/mL Fluo-4 AM (DOJINDO LABORATORIES), 0.08% Pluronic F127 (DOJINDO LABORATORIES), 1.25 mM probenecid (DOJINDO LABORATORIES)) containing a calcium indicator was added at 30 μL/well. The cells were left standing in the incubator at 37° C., 5% CO2 for 30 min, and further left standing at room temperature for 30 min. A test compound prepared by diluting with assay buffer B (HBSS (Invitrogen), 20 mM HEPES (Invitrogen), 0.1% BSA) containing 2.4-3.2 nM acetylcholine was added at 10 μL/well, and the fluorescence was measured by FLIPRtetra (Molecular Devices) for 1 min every 1 second. With the definition that the amount of change in the fluorescence on addition of acetylcholine (final concentration 1 μM) is 100% and that on addition of DMSO instead of a test compound is 0%, the activity (%) of the test compound was calculated, and the inflection point in the concentration-dependent curve of the test compound was calculated as IP values.

Consider `COc1ccc(Cc2cc3c(c(Cl)c2C)CN([C@H]2CCCC[C@@H]2O)C3=O)cc1` [Example 151, 4-chloro-2-((1S,2S)-2-hydroxycyclohexyl)-6-(4-methoxybenzyl)-5-methylisoindolin-1-one], for which the “activity (%) at 10 μM” value turned out to be 92% and the pEC50 was 7.80.
The corresponding values for `Cc1c(Cc2ccc(-c3cn(C)nn3)cc2)cc2c(c1C)CN(C[C@@H]1CCCO1)C2=O` [Example 14, 4,5-dimethyl-6-(4-(1-methyl-1H-1,2,3-triazol-4-yl)benzyl)-2-((2S)-tetrahydrofuran-2-ylmethyl)isoindolin-1-one] are 94% and 8.92.
In the same order, the values of `Cc1c(Cc2ccc(-c3cnn(C)c3)nc2)cc2c(c1C)CN([C@H]1CCCC[C@@H]1O)C2=O` (racemic) [Example 28, rac-2-(trans-2-hydroxycyclohexyl)-4,5-dimethyl-6-((6-(1-methyl-1H-pyrazol-4-yl)pyridin-3-yl)methyl)isoindolin-1-one] are 106% and 8.32.
The corresponding values for `O=C1c2cc(Cc3ccc(-n4cccn4)cc3)c(Cl)cc2CN1[C@H]1CCCC[C@@H]1O` (racemic) [Example 2, rac-5-chloro-2-(trans-2-hydroxycyclohexyl)-6-(4-(1H-pyrazol-1-yl)benzyl)isoindolin-1-one] are 109% and 7.07.
Regarding `Cc1nn(C)cc1-c1ccc(Cc2cc3c(c(C)c2C)CN([C@H]2CCCC[C@@H]2O)C3=O)c(F)c1` (racemic) [Example 94, rac-6-(4-(1,3-dimethyl-1H-pyrazol-4-yl)-2-fluorobenzyl)-2-(trans-2-hydroxycyclohexyl)-4,5-dimethylisoindolin-1-one], the “activity (%) at 10 μM” value worked out at 92% and the pEC50 is 8.02.
The corresponding values for `O=C1c2cc(Cc3ccc(-n4cccn4)cc3)c(C3CC3)cc2CN1[C@H]1CCC[C@@H]1O` (racemic) [Example 9, rac-5-cyclopropyl-2-(trans-2-hydroxycyclopentyl)-6-(4-(1H-pyrazol-1-yl)benzyl)isoindolin-1-one] are 102% and 7.37.
In the case of `Cc1cc2c(cc1Cc1ccc(-n3cccn3)cc1)C(=O)N(C(C)C(C)(C)O)C2` (stereo not shown) [Example 133, 2-(3-hydroxy-3-methylbutan-2-yl)-5-methyl-6-(4-(1H-pyrazol-1-yl)benzyl)isoindolin-1-one], the “activity (%) at 10 μM” value worked out at 87% and the pEC50 was 7.46.
The corresponding values for `Cc1cc2c(cc1Cc1ccc(-n3cccn3)cc1)C(=O)N(CC1CCCO1)C2` (stereo not shown) [Example 36, 5-methyl-6-(4-(1H-pyrazol-1-yl)benzyl)-2-(tetrahydrofuran-2-ylmethyl)isoindolin-1-one] are 107% and 7.08.
Turning to `Cc1cc(-c2ccc(Cc3cc4c(cc3C)CN([C@H]3CCC[C@@H]3O)C4=O)cc2)ccn1` (racemic) [Example 100, rac-2-(trans-2-hydroxycyclopentyl)-5-methyl-6-(4-(2-methylpyridin-4-yl)benzyl)isoindolin-1-one], the “activity (%) at 10 μM” value was determined as 101% and the pEC50 was 7.03.
Take `CNC(=O)c1ccc(Cc2cc3c(c(C)c2C)CN([C@H]2CCC[C@@H]2O)C3=O)cc1F` [Example 123, 2-fluoro-4-((2-((1S,2S)-2-hydroxycyclopentyl)-6,7-dimethyl-3-oxo-2,3-dihydro-1H-isoindol-5-yl)methyl)-N-methylbenzamide]: the “activity (%) at 10 μM” value is reported as 90% and the pEC50 was 8.68.
The corresponding values for `CNC(=O)c1ccc(Cc2cc3c(c(C)c2C)CN(CC(C)(C)O)C3=O)cc1F` [Example 138, 2-fluoro-4-((2-(2-hydroxy-2-methylpropyl)-6,7-dimethyl-3-oxo-2,3-dihydro-1H-isoindol-5-yl)methyl)-N-methylbenzamide] are 106% and 7.60.
